According to patent publication US20020048585A1, “Methods of modulating wound healing and angiogenesis” (priority 2000, published 2002):

System: primary skin fibroblasts
Test: In vitro wound closure (migration) test in confluent fibroblast cultures
Format: cell-based, mouse
Conditions: medium (DMEM with 2% FBS) supplemented with 25 ng/ml; syndecan-4+/+, +/- and -/- fibroblasts
Method: Primary skin fibroblasts were isolated from newborn syndecan-4+/+, syndecan-4+/−, and syndecan-4−/− mice from the same litter. Mice were sacrificed, and their skins were removed, flattened, and floated on a 0.25% trypsin solution (Life Technologies Inc., Gaithersburg, Md., USA) at 4° C. overnight. The dermis was separated from the epidermis and dissociated by stirring at room temperature for 30 minutes in HBSS containing collagenase (500 μg/ml) (Life Technologies Inc.). The cell suspension of each skin was passed through a cell strainer (Becton Dickinson and Co., Franklin Lakes, N.J., USA) and transferred to a 10-cm cell culture dish and cultured as described previously (Saoncella et al.1999. Proc. Natl. Acad. Sci. USA. 96:2805-2810). Dermal fibroblasts were maintained at subconfluent densities and used between passages three and six.
Primary fibroblast cultures were established for 2 days in DMEM with 10% FBS followed by an overnight culture in DMEM with 2% FBS. In vitro wound closure tests were performed by creating clear lines in confluent cultures with a sterile yellow plastic pipette tip. After two washes with medium, the monolayers were covered with fresh medium and the migration of the cells into the cleared spaces was monitored over time. The control medium used during wound closure was DMEM with 2% FBS. […]

“EGF: growth factor (Becton Dickinson) added to culture medium (NSDSECPLSHDGYCLHDGVCMYIEALDKYACNCVVGYIGERCQYRDLKWWELR; Epidermal growth factor; UniProt P01133 971-1023, looked up)” was tested, and the “rate of wound closure” value was “did not alter the rate of wound closure”.

With “FGF-2: growth factor, ligand of the FGF-2 receptor (R&D Systems), added to culture medium” the “rate of wound closure” value was “did not alter the rate of wound closure”.
